# Data taken from US12527798B2, “Preservation of immune response during chemotherapy regimens” (Pharmacosmos Holding A/S, priority 2016, dated 2026).
# Key:
# [1] = system: CD4+ and CD8+ T cells; experiment: T cell activation (CD69, IL-2) in splenocytes of MC38 tumor-bearing mice (Example 8); format: in vivo; conditions: Compound I added to oxaliplatin and anti-PD-L1, four days; spleen; FIGS. 16, 17
# Excerpt: Twenty-four hours after the final dose, the mice were euthanized and spleens were harvested and processed to single-cell suspensions for T-cell analysis. Splenocytes were stained with anti-CD4, CD8, and CD69 antibodies for flow cytometric analysis. The percentage of activated CD4+ T cells was defined as the proportion of CD69+ cells within the CD8−CD4+ T cell fraction, while the percentage of activated CD8+ T cells was defined as the proportion of CD69+ cells within the CD8+CD4− T cell fraction, the results of which are shown in FIGS. 16 and 17. Additionally, splenocytes were also stimulated ex-vivo with anti-CD3/CD28 antibodies for 72 hours and were stained with anti-CD4, CD8, and IL-2 antibodies for flow cytometric analysis. The percentage of IL-2+ cells was defined as the proportion of IL-2+ cells within the […] T cell fraction, the results of which are shown in FIG. 18.
# [2] = system: CD8+ T cells; experiment: CFSE proliferation of CD8+ T cells in the presence of Tregs treated with Compound I (Example 9); format: cell-based, C57BL/6 mice; conditions: splenocytes stimulated with anti-CD3/CD28 72 hours; FIG. 20
# Description: (§1) CD4+CD25+ Tregs were purified from spleens of C57BL/6 mice using a two-step magnetic bead separation process-depletion of all non-CD4+ cells followed by positive selection of CD25+ cells. Purified Tregs were cultured ex-vivo with […] antibodies and IL-2 for 48 hours with either 0, 250, or 1000 nM trilaciclib. […] The percentage of phospho-Rb+ Tregs was defined as phospho-Rb+ cells in the CD4+Foxp3+ population. […] CFSE-labeled splenocytes were stimulated ex-vivo with anti-CD3/CD28 antibodies for 72 hours in the presence or absence of Tregs treated with Compound I. Cells were stained with anti-CD4 and CD8 antibodies, and T cell proliferation was assessed by the dilution of the mean fluorescence intensity of CFSE in CD4-CD8+ T cells by flow cytometric analysis. Percent proliferation was calculated as (mean CFSE intensity of CD8+ T cells stimulated in the absence of Tregs)/(mean CFSE intensity of CD8+ T cells stimulated in the presence of Tregs)×100, the results of which are shown in FIG. 19 and FIG. 20.
# [3] = system: intra-tumor immune cells; experiment: EdU incorporation in intra-tumor immune cell populations of MC38 tumor-bearing mice (Example 10); format: in vivo, C57BL/6 mice; conditions: one dose 100 mg/kg IP; EdU 6 to 48 hours after treatment; FIGS. 21, 22
# Description: MC38 tumor-bearing C57BL/6 mice were treated with one dose of Compound I (100 mg/kg, IP), followed by in vivo EdU (5-ethynyl-2′-deoxyuridine, 200 μg/mouse, IP) incorporation 6 to 48 hours after treatment with Compound I. Eighteen hours after EdU dosing, mice were euthanized and tumors were harvested for analysis. Tumors were processed to single-cell suspensions, followed by depletion of dead cells and enrichment of CD45+ immune cells prior to antibody labeling for various lymphoid and myeloid immune cell populations defined as follows: CD8+ T cells (CD4−CD8+), CD4+ T cells (CD4+CD8−Foxp3−), Tregs (CD4+CD8−Foxp3+), NK (CD3−NK1.1+), monocytic myeloid derived suppressor cells (mMDSCs, CD11b+Ly6C+Ly6G−), granulocytic myeloid derived suppressor cells (gMDSCs, CD11b+Ly6C+Ly6G+), and macrophages (CD11b+Ly6C−Ly6G−). After cell surface staining, cell samples were fixed and EdU incorporation was detected by click chemistry followed by flow cytometric analysis. Inhibition of proliferation is represented as the (% EdU+ in Compound I treated)/(% EdU+ in vehicle treated)×100 for each cell population at each time point.
# [4] = system: CDK4/6-Rb pathway; experiment: Phospho-Rb in purified Tregs cultured ex vivo, flow cytometry (Example 9); format: cell-based, C57BL/6 mice; conditions: 0, 250 or 1000 nM, 48 hours; FIG. 19
# Description: as §1
# [5] = system: MC38 tumor cells; format: in vivo; conditions: dosing schedule not given, anti-PD-1 combination study
# Description: For all xenograft studies, nine-week old female C57BL/6 mice (C57BL/6NCrl) were implanted with MC38 tumor cells and treatment was initiated when mean tumor volume was approximately 100 mm^3. Compound I was administered in combination with oxaliplatin and […] according to the Induction and Maintenance (IM) dosing schedule, which is shown in FIG. 3.
# Briefly, Compound I (100 mg/kg) and oxaliplatin (10 mg/kg) were administered intraperitoneally (IP) once weekly for three doses and mouse […] (5 mg/kg, IP) was given twice weekly starting on Day 1 and continuing through the end of study.
# Single, two, and three drug combinations were tested and Compound I was administered 30 minutes prior to chemotherapy treatment. Complete response (CR) and partial response (PR) were calculated using standard Charles River Laboratories (CRL; RTP, NC) criteria. Body weight (BW) and health were monitored, and tumor volume was measured twice weekly. The individual tumor volume endpoint was 1000 mm^3 or Day 100, whichever came first.
# [6] = system: MC38 tumor; experiment: MC38 tumor volume under continuous daily dosing of Compound I with or without anti-PD-L1 (Example 16); format: in vivo, mice; conditions: continuous Compound I (daily x 28 days, IP, 100 mg/kg) added to anti-PD-L1; FIG. 38
# Description: MC38 tumor-bearing mice were treated with Compound I (daily×28 days, IP, 100 mg/kg) with or without anti-PD-L1 (biweekly×2 weeks, IP, 100 ug/animal) and tumor volume was evaluated.
# [7] = system: MC38 tumors; experiment: Whole-tumor gene expression, PanCancer Immune Profiling Panel, two weekly doses (Examples 12 and 14); format: in vivo, C57BL/6 mice; conditions: two weekly doses 100 mg/kg IP, p <0.05, absolute fold change >1.3
# Description: MC38 tumor-bearing C57BL/6 mice were treated with two weekly doses of Compound I (100 mg/kg, IP). One day after the last dose, mice were euthanized and tumors were harvested for analysis. Gene expression analysis was performed on whole tumors using the PanCancer Immune Profiling Panel. Normalized and Log 2 transformed expression values were used for identification of differentially expressed genes, defined using a p-value cutoff of <0.05 and absolute fold change >1.3.
# [8] = system: splenocytes; experiment: Ex vivo splenocyte stimulation, IL-2 and IFNγ ELISA after 5-FU treatment (Example 6); format: in vivo, C57BL/6 mice; conditions: Compound I 100 mg/kg added to 5-FU 50 mg/kg, 3 daily IP doses, splenocytes stimulated with anti-CD3/CD28 72 h
# Description: C57BL/6 mice were treated with 3 daily IP doses of 50 mg/kg 5-FU±100 mg/kg Compound I. Two and seven days after the final treatment, mice were euthanized and spleens were harvested. Splenocytes were stimulated ex vivo with anti-CD3/CD28 antibodies for 72 hours and interferon gamma (IFNγ) or interleukin-2 (IL-2) levels were measured via ELISA (R&D systems). After the ex-vivo splenocyte stimulation in C57BL/6 mice, Compound I enhanced IL-2 production (FIG. 12) and preserved IFNγ production (FIG. 13) after 5-FU treatment. A potential mechanism by which Compound I enhances anti-tumor activity includes the preservation of T lymphocyte function from chemotherapy.
smiles,measurement,setting,value
"CN1CCN(c2ccc(Nc3ncc4cc5n(c4n3)C3(CCCCC3)CNC5=O)nc2)CC1 [Compound I, trilaciclib]",T cell activation (CD69+ CD4+ and CD8+ T cells),[1],Enhanced T Cell Activation
same,proliferation of CD8+ T cells in the presence of Tregs treated with Compound I,[2],dose-dependent increase in proliferation
same,proliferation of intra-tumor lymphoid and myeloid immune cell populations (EdU),[3],transient and reversible inhibition of cell proliferation
same,phospho-Rb level in Tregs,[4],dose-dependent down-regulation
same,Complete Response %,[5],10%
same,Objective Response Rate %,[5],20%
same,Overall Survival (OS),[5],22
same,Partial Response %,[5],10%
same,anti-tumor effect (tumor volume),[6],"does not enhance the anti-tumor effect and, in fact, causes some attenuation"
same,"expression of genes Il2, Il18, and Lta (positive regulation of interferon-gamma production)",[7]; FIGS. 25-27,Up-regulated
same,"expression of genes Cdkn1a, Cxcl1, Il6, Il10, Il19, Ptgs2 (reactive oxygen species metabolism)",[7]; FIGS. 32-37,Down-regulated
same,IL-2 production,[8]; FIG. 12,enhanced
same,IFNγ production,[8]; FIG. 13,preserved
